# Laboratory results taken from PubChem BioAssay (NCI).
# Several values for one entry are separate records, joined by “and”; a condition that tells them apart may be missing. Equal entries are not always repeated.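 All cell lines were grown in 96-well plates and treated with compound for 48 hours. GI50 = concentration required for 50% inhibition of growth. TGI marks complete inhibition of growth.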 Numbered stars: 1 amine (or outer) side, 2 acyl side, 3 side chain; on linkers, the order of the positions; unused ones are H or OH. Bridge positions count the residues as written; N and C are the ends. Square brackets hold non-standard residues; d marks the D form. Peptide text beside a SMILES is read from it. I, II: the chains in the order shown. Actinocin(9to1) = Cc1c2oc3c(C)ccc(C(=O)[*:1])c3nc-2c(C(=O)[*:2])c(N)c1=O; aThr = C[C@H](O)[C@H](N)C(=O)O; NMeV = CN[C@H](C(=O)O)C(C)C; Sar = CNCC(=O)O
# How the values were obtained:
# Assay in all cases: NCI tumour cell line growth inhibition, 48 h
# 786-0 renal = system: 786-0 renal
# A498 renal = system: A498 renal
# A549 NSCLC = system: A549 NSCLC
# ACHN renal = system: ACHN renal
# CAKI-1 renal = system: CAKI-1 renal
# CCRF-CEM leukemia = system: CCRF-CEM leukemia
# COLO 205 colon = system: COLO 205 colon
# DLD-1 colon = system: DLD-1 colon
# DMS 273 small cell lung = system: DMS 273 small cell lung
# EKVX NSCLC = system: EKVX NSCLC
# HCC-2998 colon = system: HCC-2998 colon
# HCT-116 colon = system: HCT-116 colon
# HCT-15 colon = system: HCT-15 colon
# HL-60(TB) leukemia = system: HL-60(TB) leukemia
# HOP-18 NSCLC = system: HOP-18 NSCLC
# HOP-62 NSCLC = system: HOP-62 NSCLC
# HOP-92 NSCLC = system: HOP-92 NSCLC
# HT29 colon = system: HT29 colon
# IGROV1 ovarian = system: IGROV1 ovarian
# K-562 leukemia = system: K-562 leukemia
# KM12 colon = system: KM12 colon
# KM20L2 colon = system: KM20L2 colon
# LOX IMVI melanoma = system: LOX IMVI melanoma
# LXFL 529 NSCLC = system: LXFL 529 NSCLC
# M14 melanoma = system: M14 melanoma
# M19-MEL melanoma = system: M19-MEL melanoma
# MALME-3M melanoma = system: MALME-3M melanoma
# MOLT-4 leukemia = system: MOLT-4 leukemia
# NCI-H226 lung = system: NCI-H226 lung
# NCI-H23 lung = system: NCI-H23 lung
# NCI-H460 lung = system: NCI-H460 lung
# NCI-H522 lung = system: NCI-H522 lung
# OVCAR-3 ovarian = system: OVCAR-3 ovarian
# OVCAR-4 ovarian = system: OVCAR-4 ovarian
# OVCAR-5 ovarian = system: OVCAR-5 ovarian
# OVCAR-8 ovarian = system: OVCAR-8 ovarian
# RPMI-8226 leukemia = system: RPMI-8226 leukemia
# RXF 393 renal = system: RXF 393 renal
# RXF-631 renal = system: RXF-631 renal
# SF-268 CNS = system: SF-268 CNS
# SF-295 CNS = system: SF-295 CNS
# SF-539 CNS = system: SF-539 CNS
# SK-MEL-2 melanoma = system: SK-MEL-2 melanoma
# SK-MEL-28 melanoma = system: SK-MEL-28 melanoma
# SK-MEL-5 melanoma = system: SK-MEL-5 melanoma
# SK-OV-3 ovarian = system: SK-OV-3 ovarian
# SN12C renal = system: SN12C renal
# SNB-19 CNS = system: SNB-19 CNS
# SNB-75 CNS = system: SNB-75 CNS
# SNB-78 CNS = system: SNB-78 CNS
# SW-620 colon = system: SW-620 colon
# TK-10 renal = system: TK-10 renal
# U251 CNS = system: U251 CNS
# UACC-257 melanoma = system: UACC-257 melanoma
# UACC-62 melanoma = system: UACC-62 melanoma
# UO-31 renal = system: UO-31 renal
# XF 498 CNS = system: XF 498 CNS
# DMS 114 small cell lung = system: DMS 114 small cell lung
# HS 578T breast = system: HS 578T breast
# MCF7 breast = system: MCF7 breast
# P388 leukemia = system: P388 leukemia
# P388/ADR leukemia = system: P388/ADR leukemia
# SN12K1 renal = system: SN12K1 renal
# T-47D breast = system: T-47D breast
smiles,measurement,setting,value
CC1C(O)=C(O)c2ccccc2N1O (configuration not stated),TGI,786-0 renal,> 100000 nM
same,TGI,A498 renal,> 100000 nM
same,TGI,A549 NSCLC,> 100000 nM
same,TGI,ACHN renal,> 100000 nM
same,TGI,CAKI-1 renal,> 100000 nM
same,TGI,CCRF-CEM leukemia,> 100000 nM
same,TGI,COLO 205 colon,> 100000 nM
same,TGI,DLD-1 colon,> 100000 nM
same,TGI,DMS 273 small cell lung,> 100000 nM
same,TGI,EKVX NSCLC,> 100000 nM
same,TGI,HCC-2998 colon,> 100000 nM
same,TGI,HCT-116 colon,> 100000 nM
same,TGI,HCT-15 colon,> 100000 nM
same,TGI,HL-60(TB) leukemia,> 100000 nM
same,TGI,HOP-18 NSCLC,> 100000 nM
same,TGI,HOP-62 NSCLC,> 100000 nM
same,TGI,HOP-92 NSCLC,> 100000 nM
same,TGI,HT29 colon,> 100000 nM
same,TGI,IGROV1 ovarian,> 100000 nM
same,TGI,K-562 leukemia,> 100000 nM
same,TGI,KM12 colon,> 100000 nM
same,TGI,KM20L2 colon,> 100000 nM
same,TGI,LOX IMVI melanoma,> 100000 nM
same,TGI,LXFL 529 NSCLC,> 100000 nM
same,TGI,M14 melanoma,> 100000 nM
same,TGI,M19-MEL melanoma,> 100000 nM
same,TGI,MALME-3M melanoma,> 100000 nM
same,TGI,MOLT-4 leukemia,> 100000 nM
same,TGI,NCI-H226 lung,> 100000 nM
same,TGI,NCI-H23 lung,> 100000 nM
same,TGI,NCI-H460 lung,> 100000 nM
same,TGI,NCI-H522 lung,> 100000 nM
same,TGI,OVCAR-3 ovarian,> 100000 nM
same,TGI,OVCAR-4 ovarian,> 100000 nM
same,TGI,OVCAR-5 ovarian,> 100000 nM
same,TGI,OVCAR-8 ovarian,> 100000 nM
same,TGI,RPMI-8226 leukemia,> 100000 nM
same,TGI,RXF 393 renal,> 100000 nM
same,TGI,RXF-631 renal,> 100000 nM
same,TGI,SF-268 CNS,> 100000 nM
same,TGI,SF-295 CNS,> 100000 nM
same,TGI,SF-539 CNS,> 100000 nM
same,TGI,SK-MEL-2 melanoma,> 100000 nM
same,TGI,SK-MEL-28 melanoma,> 100000 nM
same,TGI,SK-MEL-5 melanoma,> 100000 nM
same,TGI,SK-OV-3 ovarian,> 100000 nM
same,TGI,SN12C renal,> 100000 nM
same,TGI,SNB-19 CNS,> 100000 nM
same,TGI,SNB-75 CNS,> 100000 nM
same,TGI,SNB-78 CNS,> 100000 nM
same,TGI,SW-620 colon,> 100000 nM
same,TGI,TK-10 renal,> 100000 nM
same,TGI,U251 CNS,> 100000 nM
same,TGI,UACC-257 melanoma,> 100000 nM
same,TGI,UACC-62 melanoma,> 100000 nM
same,TGI,UO-31 renal,> 100000 nM
same,TGI,XF 498 CNS,> 100000 nM
"Cc1c2oc3c(C)ccc(C(=O)N[C@@H]4C(=O)N[C@H](C(C)C)C(=O)N5CCC[C@H]5C(=O)N(C)CC(=O)N(C)[C@@H](C(C)C)C(=O)O[C@H]4C)c3nc-2c(C(=O)N[C@@H]2C(=O)N[C@H](C(C)C)C(=O)N3CCC[C@H]3C(=O)N(C)CC(=O)N(C)[C@@H](C(C)C)C(=O)O[C@H]2C)c(N)c1=O (I: [aThr][dV]P[Sar][NMeV] / II: [aThr][dV]P[Sar][NMeV]; ester I:1-I:C, II:1-II:C; linker I:N-II:N via Actinocin(9to1))",GI50,DLD-1 colon,1.9 nM
same,TGI,DLD-1 colon,208 nM and 1200 nM
same,GI50,DMS 114 small cell lung,1.01 nM
same,TGI,DMS 114 small cell lung,18.7 nM and 12.2 nM
same,GI50,DMS 273 small cell lung,0.783 nM
same,TGI,DMS 273 small cell lung,26 nM and 17.8 nM
same,GI50,HOP-18 NSCLC,9.03 nM
same,TGI,HOP-18 NSCLC,123 nM and 125 nM
same,TGI,HS 578T breast,47.7 nM [middle of 4 runs]
same,GI50,KM20L2 colon,0.964 nM
same,TGI,KM20L2 colon,106 nM and 85.9 nM
same,GI50,LXFL 529 NSCLC,1.39 nM and 0.348 nM
same,TGI,LXFL 529 NSCLC,70 nM and 320 nM
same,GI50,M19-MEL melanoma,0.496 nM
same,TGI,M19-MEL melanoma,19.4 nM and 12.7 nM
same,TGI,MCF7 breast,69.3 nM and 250 nM and 197 nM
same,TGI,P388 leukemia,15.4 nM
same,TGI,P388/ADR leukemia,171 nM
same,TGI,SN12K1 renal,148 nM
same,TGI,SNB-75 CNS,24.6 nM [middle of 6 runs]
same,GI50,SNB-78 CNS,4.47 nM
same,TGI,SNB-78 CNS,117 nM and 315 nM
same,TGI,T-47D breast,34.3 nM [middle of 4 runs]
same,GI50,XF 498 CNS,0.444 nM
same,TGI,XF 498 CNS,12.8 nM and 3.03 nM
